Reference: patent US20090018134A1, “Compounds - 945” (AstraZeneca AB, priority 2007, published 2009)

Biological target: T1, mTOR (Homo sapiens, UniProt P42345)
T1 construct: FLAG; made in house
Assay: In Vitro mTOR Kinase Assay (Echo), Test (a)(ii)
Type: biochemical
Details: table of enzyme assay Test (a)(ii); read-out: Test (a)(ii) IC50
Outline: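 Compounds were acoustically dispensed, then incubated with FLAG-tagged mTOR (1362-2549) for 2 hours at room temperature. Reactions were quenched with EDTA plus detection antibody and AlphaScreen beads and left overnight in the dark before reading. Loss of phospho-T389 signal gave IC50 values.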

T1 sequence (P42345 1362-2549): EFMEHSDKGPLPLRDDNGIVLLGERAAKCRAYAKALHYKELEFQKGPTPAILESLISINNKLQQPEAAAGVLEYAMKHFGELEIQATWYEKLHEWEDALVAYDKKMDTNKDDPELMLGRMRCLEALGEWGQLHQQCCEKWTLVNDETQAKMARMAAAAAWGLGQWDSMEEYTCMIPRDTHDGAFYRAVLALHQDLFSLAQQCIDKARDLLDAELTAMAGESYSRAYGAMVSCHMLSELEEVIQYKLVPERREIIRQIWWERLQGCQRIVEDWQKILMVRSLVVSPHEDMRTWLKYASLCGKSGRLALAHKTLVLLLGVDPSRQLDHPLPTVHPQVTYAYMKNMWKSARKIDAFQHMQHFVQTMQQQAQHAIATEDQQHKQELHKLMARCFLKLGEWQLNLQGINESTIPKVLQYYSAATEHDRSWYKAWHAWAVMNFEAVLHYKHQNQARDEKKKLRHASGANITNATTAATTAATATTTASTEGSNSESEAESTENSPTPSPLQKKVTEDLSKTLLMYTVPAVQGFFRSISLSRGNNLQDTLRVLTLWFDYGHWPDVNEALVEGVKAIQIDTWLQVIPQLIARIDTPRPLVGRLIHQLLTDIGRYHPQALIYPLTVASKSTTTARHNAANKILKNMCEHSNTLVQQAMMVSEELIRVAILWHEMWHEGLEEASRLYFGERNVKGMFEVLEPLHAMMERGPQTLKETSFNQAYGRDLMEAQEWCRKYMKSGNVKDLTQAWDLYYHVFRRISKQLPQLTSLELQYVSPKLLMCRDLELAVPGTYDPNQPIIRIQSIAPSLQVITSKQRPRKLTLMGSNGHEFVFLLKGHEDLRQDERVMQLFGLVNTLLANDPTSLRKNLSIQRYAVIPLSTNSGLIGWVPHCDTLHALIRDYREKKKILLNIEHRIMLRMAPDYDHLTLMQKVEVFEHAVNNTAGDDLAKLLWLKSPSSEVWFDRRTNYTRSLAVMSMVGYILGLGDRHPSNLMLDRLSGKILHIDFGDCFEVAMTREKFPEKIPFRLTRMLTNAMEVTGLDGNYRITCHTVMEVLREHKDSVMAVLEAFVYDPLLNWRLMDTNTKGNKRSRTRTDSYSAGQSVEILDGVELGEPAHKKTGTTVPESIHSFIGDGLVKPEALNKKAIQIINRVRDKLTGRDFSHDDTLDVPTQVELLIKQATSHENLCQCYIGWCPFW

Row | Structure (SMILES) | IC50
1 | Cc1nn(C)cc1S(=O)(=O)C1(c2cc(N3CCOC[C@@H]3C)nc(-c3ccc(NC(=O)NC4CC4)cc3)n2)CC1 [Example 55a, 3-cyclopropyl-1-[4-[4-[1-(1,3-dimethylpyrazol-4-yl)sulfonylcyclopropyl]-6-[(3S)-3-methylmorpholin-4-yl]pyrimidin-2-yl]phenyl]urea] | 21.3 nM
2 | Cc1nn(C)cc1S(=O)(=O)C1(c2cc(N3CCOC[C@@H]3C)nc(-c3ccc(NC(=O)NCCO)cc3)n2)CC1 [Example 55b, 1-[4-[4-[1-(1,3-dimethylpyrazol-4-yl)sulfonylcyclopropyl]-6-[(3S)-3-methylmorpholin-4-yl]pyrimidin-2-yl]phenyl]-3-(2-hydroxyethyl)urea] | 16.1 nM
3 | Cc1nn(C)cc1S(=O)(=O)C1(c2cc(N3CCOC[C@@H]3C)nc(-c3ccc(NC(=O)NCCF)cc3)n2)CC1 [Example 55c, 1-[4-[4-[1-(1,3-dimethylpyrazol-4-yl)sulfonylcyclopropyl]-6-[(3S)-3-methylmorpholin-4-yl]pyrimidin-2-yl]phenyl]-3-(2-fluoroethyl)urea] | 18.9 nM
4 | Cc1nn(C)cc1S(=O)(=O)C1(c2cc(N3CCOC[C@@H]3C)nc(-c3ccc(NC(=O)NCC(F)F)cc3)n2)CC1 [Example 55d, 3-(2,2-difluoroethyl)-1-[4-[4-[1-(1,3-dimethylpyrazol-4-yl)sulfonylcyclopropyl]-6-[(3S)-3-methylmorpholin-4-yl]pyrimidin-2-yl]phenyl]urea] | 35.1 nM
5 | CCNC(=O)Nc1ccc(-c2nc(N3CCOC[C@@H]3C)cc(C3(S(=O)(=O)c4cn(C)nc4C)CC3)n2)cc1 [Example 55e, 3-[4-[4-[1-(1,3-dimethylpyrazol-4-yl)sulfonylcyclopropyl]-6-[(3S)-3-methylmorpholin-4-yl]pyrimidin-2-yl]phenyl]-1-ethylurea] | 20.4 nM
6 | Cc1nn(C)cc1S(=O)(=O)C1(c2cc(N3CCOC[C@@H]3C)nc(-c3ccc(NC(=O)Nc4cnn(C)c4)cc3)n2)CC1 [Example 55f, 1-[4-[4-[1-(1,3-dimethylpyrazol-4-yl)sulfonylcyclopropyl]-6-[(3S)-3-methylmorpholin-4-yl]pyrimidin-2-yl]phenyl]-3-(1-methylpyrazol-4-yl)urea] | 15.6 nM
7 | O=C(Nc1ccc(-c2nc(N3CCOCC3)cc(C3(S(=O)(=O)c4ccccn4)CC3)n2)cc1)NC1CC1 [Example 56, 3-Cyclopropyl-1-[4-[4-morpholin-4-yl-6-(1-Pyridin-2-ylsulfonylcyclopropyl)pyrimidin-2-yl]phenyl]urea] | 2.31 nM
8 | CNC(=O)Nc1ccc(-c2nc(N3CCOCC3)cc(C3(S(=O)(=O)c4ccccn4)CC3)n2)cc1 [Example 56a, 3-methyl-1-[4-[4-morpholin-4-yl-6-(1-pyridin-2-ylsulfonylcyclopropyl)pyrimidin-2-yl]phenyl]urea] | 2.26 nM
9 | CCNC(=O)Nc1ccc(-c2nc(N3CCOCC3)cc(C3(S(=O)(=O)c4ccccn4)CC3)n2)cc1 [Example 56b, 3-ethyl-1-[4-[4-morpholin-4-yl-6-(1-pyridin-2-ylsulfonylcyclopropyl)pyrimidin-2-yl]phenyl]urea] | 1.65 nM
10 | O=C(NCCO)Nc1ccc(-c2nc(N3CCOCC3)cc(C3(S(=O)(=O)c4ccccn4)CC3)n2)cc1 [Example 56c, 3-(2-hydroxyethyl)-1-[4-[4-morpholin-4-yl-6-(1-pyridin-2-ylsulfonylcyclopropyl)pyrimidin-2-yl]phenyl]urea] | 6.23 nM
11 | Cn1cc(NC(=O)Nc2ccc(-c3nc(N4CCOCC4)cc(C4(S(=O)(=O)c5ccccn5)CC4)n3)cc2)cn1 [Example 56d, 3-(1-methylpyrazol-4-yl)-1-[4-[4-morpholin-4-yl-6-(1-pyridin-2-ylsulfonylcyclopropyl)pyrimidin-2-yl]phenyl]urea] | 4.3 nM
12 | CNC(=O)Nc1ccc(-c2nc(N3CCOC[C@@H]3C)cc(C3(S(=O)(=O)c4ccc(NC)cc4F)CC3)n2)cc1 [Example 57, 1-[4-[4-[1-(2-Fluoro-4-methylaminophenyl)sulfonylcyclopropyl]-6-[(3S)-3-methylmorpholin-4-yl]pyrimidin-2-yl]phenyl]-3-methylurea] | 11.9 nM
13 | C[C@H]1COCCN1c1cc(C2(S(=O)(=O)c3ccc(F)cc3F)CC2)nc(-c2ccc(NC(=O)NC3CC3)cc2)n1 [Example 57a, 3-cyclopropyl-1-[4-[4-[1-(2,4-difluorophenyl)sulfonylcyclopro-pyl]-6-[(3S)-3-methylmorpholin-4-yl]pyrimidin-2-yl]phenyl]urea] | 10.4 nM
14 | C[C@H]1COCCN1c1cc(C2(S(=O)(=O)c3ccc(F)cc3F)CC2)nc(-c2ccc(NC(=O)NCCF)cc2)n1 [Example 57c, 1-[4-[4-[1-(2,4-difluorophenyl)sulfonylcyclopro-pyl]-6-[(3S)-3-methylmorpholin-4-yl]pyrimidin-2-yl]phenyl]-3-(2-fluoroethyl)urea] | 6.95 nM
15 | CCNC(=O)Nc1ccc(-c2nc(N3CCOC[C@@H]3C)cc(C3(S(=O)(=O)c4ccc(F)cc4F)CC3)n2)cc1 [Example 57e, 3-[4-[4-[1-(2,4-difluorophenyl)sulfonylcyclopro-pyl]-6-[(3S)-3-methylmorpholin-4-yl]pyrimidin-2-yl]phenyl]-1-ethylurea] | 7.28 nM
16 | C[C@H]1COCCN1c1cc(C2(S(=O)(=O)c3ccc(F)cc3F)CC2)nc(-c2ccc(NC(=O)Nc3cnn(C)c3)cc2)n1 [Example 57f, 1-[4-[4-[1-(2,4-difluorophenyl)sulfonylcyclopro-pyl]-6-[(3S)-3-methylmorpholin-4-yl]pyrimidin-2-yl]phenyl]-3-(1-methylpyrazol-4-yl)urea] | 10.6 nM
17 | C[C@H]1COCCN1c1cc(C2(S(=O)(=O)c3ccc(F)cc3F)CC2)nc(-c2ccc(NC(=O)NCC3(O)CC3)cc2)n1 [Example 57g, 1-[4-[4-[1-(2,4-difluorophenyl)sulfonylcyclopro-pyl]-6-[(3S)-3-methylmorpholin-4-yl]pyrimidin-2-yl]phenyl]-3-[(1-hydroxycyclopropyl)methyl]urea] | 58.5 nM
18 | CNC(=O)Nc1ccc(-c2nc(N3CCOC[C@@H]3C)cc(C3(S(=O)(=O)c4ccccc4F)CC3)n2)cc1 [Example 58, 1-[4-[4-[1-(2-Fluorophenyl)sulfonylcyclopropyl]-6-[(3S)-3-methylmorpholin-4-yl]pyrimidin-2-yl]phenyl]-3-methylurea] | 1.15 nM
19 | C[C@H]1COCCN1c1cc(C2(S(=O)(=O)c3ccccc3F)CC2)nc(-c2ccc(NC(=O)NC3CC3)cc2)n1 [Example 58a, 3-cyclopropyl-1-[4-[4-[1-(2-fluorophenyl)sulfonylcyclopropyl]-6-[(3S)-3-methylmorpholin-4-yl]pyrimidin-2-yl]phenyl]urea] | 3.39 nM
20 | C[C@H]1COCCN1c1cc(C2(S(=O)(=O)c3ccccc3F)CC2)nc(-c2ccc(NC(=O)NCCO)cc2)n1 [Example 58b, 1-[4-[4-[1-(2-fluorophenyl)sulfonylcyclopropyl]-6-[(3S)-3-methylmorpholin-4-yl]pyrimidin-2-yl]phenyl]-3-(2-hydroxyethyl)urea] | 2 nM
21 | C[C@H]1COCCN1c1cc(C2(S(=O)(=O)c3ccccc3F)CC2)nc(-c2ccc(NC(=O)NCCF)cc2)n1 [Example 58c, 3-(2-fluoroethyl)-1-[4-[4-[1-(2-fluorophenyl)sulfonylcyclopropyl]-6-[(3S)-3-methylmorpholin-4-yl]pyrimidin-2-yl]phenyl]urea] | 3.27 nM
